# Tests used:
# C57BL/6J male mice [1] = assay: Conditioned taste aversion test (preference to saccharin solution); assay type: in vivo; details: conditioning on day 6, test on day 8
# Protocol: As the experimental animal, C57BL/6J male mice which were the same as used in the previous experiment were used. The mice reared in individual cages were given two bottles of water only for 2 hours in a period between 10:00 a.m. and 12:00 p.m. for 5 days, whereby the mice were acclimated to the water restriction schedule. On day 6, a 0.15% saccharin solution was presented for 30 minutes, and thereafter, lithium chloride (3 mmol/kg) was intraperitoneally administered, whereby the mice were made to acquire an aversion to the taste of the saccharin solution (conditioning). In the same manner, a control group in which physiological saline (10 mL/kg) was orally administered and a test group in which D-psicose (1 g/kg or 3 g/kg) was orally administered were prepared. On day 7 serving as a rest day, the above-described water restriction schedule was performed. On day 8 serving as a test day, two bottles, one bottle containing a 0.15% saccharin solution and the other bottle containing water, were simultaneously presented for 30 minutes, and the ratio of preference to the saccharin solution (the intake amount of saccharin/the total intake amount from the two bottles) was determined.
# The ratio of preference to the saccharin solution after making the mice to acquire a conditioned taste aversion is shown in FIG. 4. The obtained results are expressed as a mean and a standard error. A statistical test was performed by a one-way analysis of variance, and a Dunnett's test in comparison with the control group was performed. The data was marked with ** when the P value was less than 1%.
# C57BL/6J male mice [2] = assay: Food intake in fasted mice after oral gavage or intraperitoneal administration; assay type: in vivo; details: for cumulative food intake (energy (kcal)): comparative example, incl. energy of administered sugar; for cumulative food intake (relative value (%)): mice fasted 16 hours
# Protocol: As the experimental animal, C57BL/6J male mice were used. The mice were acclimated to the environment by preliminary rearing for 1 week or more in individual cages. After fasting the mice for 16 hours from 18:00 p.m. on the previous day of the experiment, each test solution was orally administered by gavage or intraperitoneally administered to the mice. In each administration route, physiological saline (10 mL/kg) was administered in a control group, and D-psicose (0.3 g/kg, 1 g/kg, or 3 g/kg) was administered in a test group. The concentration of the respective test solutions at this time was […], 10%, and 30%, respectively. Each solution was administered at 9:45 a.m., and from 10:00 a.m., the mice were allowed free access to CE-2 feed (a standard mouse feed with a good nutritional balance manufactured by CLEA Japan, Inc.), and the food intake was measured over time after 0.5 hours, 1 hour, 2 hours, 3 hours, 6 hours, and 24 hours.
# Incidentally, as a comparative example, an experiment of oral administration by gavage of D-glucose (1 g/kg and 3 g/kg), which has a sweetness equivalent to D-psicose and has a similar structure, but is metabolized to contribute to energy production, was performed in the same manner.
# The results obtained by plotting the elapsed time after administration on the abscissa, and the cumulative food intake (relative value (%)) at each elapsed time on the ordinate are shown in FIG. 1 (oral administration by gavage) and FIG. 2 (intraperitoneal administration). Incidentally, the cumulative food intake (relative value (%)) is expressed as the ratio of the cumulative food intake in each group with the average food intake in the physiological saline group at each time in each experiment performed taken as 100%. The obtained results are expressed as a mean and a standard error. A statistical test was performed by a one-way analysis of variance, and if a significant difference was detected, a Dunnett's test in comparison with the control group was performed. The significance level for the test was set to less than 5% on both sides, and the data was marked with * when the P value was less than 5%, and the data was marked with ** when the P value was less than 1%.
# The cumulative food intake (energy (kcal)) after D-glucose (1 g/kg and 3 g/kg) was orally administered by gavage in the comparative example is shown in FIG. 3. […] The notation of the results and the statistical analysis is the same as in FIGS. 1 and 2.
# C57BL/6J male mice [3] = assay: Liquid food intake in sham-operated and subdiaphragmatic vagotomized mice; assay type: in vivo; details: oral gavage 1 g/kg
# Protocol: As the experimental animal, C57BL/6J male mice were used. The mice were divided into the following two groups: a sham-operated group consisting of sham-operated mice; and a subdiaphragmatic vagotomized group consisting of subdiaphragmatic vagotomized mice, and were subjected to the operation, respectively. After a recovery period of one week, the mice were fasted overnight (for 16 hours) on the previous day of the experiment of food intake. Thereafter, each test solution was orally administered by gavage to the mice, and the intake of a liquid food (milk for babies and toddlers) after the administration was examined. As the respective test solutions administered, in both of the sham-operated group and the subdiaphragmatic vagotomized group, physiological saline (10 mL/kg) or D-psicose (1 g/kg) was orally administered by gavage. The concentration of the D-psicose solution at this time was 10%. Each test solution was orally administered by gavage to mice at 9:45 a.m., and from 10:00 a.m., the mice were allowed free access to the liquid food, and the food intake was measured over time.
# The cumulative liquid food intake after orally administering D-psicose (1 g/kg) by gavage to the subdiaphragmatic vagotomized mice and the sham-operated mice is shown in FIG. 6. […] The obtained results are expressed as a mean and a standard error. […]
# c-Fos = c-Fos expression (marker of neuronal activation) by immunostaining in nodose ganglion and medullary nucleus tractus solitarius; assay type: in vivo, mice; details: oral gavage 1 g/kg, fasted overnight, compared with physiological saline group
# Protocol: The activation of “vagal afferent nuron” and “medullary nucleus tractus solitarius”, which is a projection site of the vagal afferent nerves, caused by the oral administration of D-psicose was analyzed based on the expression level of c-Fos, which is a marker of neuronal activation, using an immunostaining method. The c-Fos is a kind of immediate early gene and is an intranuclear protein whose expression level increases with the activation of a nerve and can be utilized as a marker of neuronal activation. The cell bodies of the vagal afferent neurons are all localized in the nodose ganglion, and these vagal afferent neurons are bipolar which project to the peripheral side (many internal organs such as heart, lung, gastrointestinal tract, pancreas, and liver) and the central side (medullary nucleus tractus solitarius).
# As the experimental animal, C57BL/6J male mice were used. The mice were acclimated to the environment by preliminary rearing and handling for 1 week or more in individual cages. After fasting the mice overnight, D-psicose (1 g/kg) was orally administered by gavage. […]
# The results of the expression level of c-Fos in the nodose ganglion and in the medullary nucleus tractus solitarius in the mice after orally administering D-psicose are shown in FIG. 5. The obtained results are expressed as a mean and a standard error. […]
# [4] = cited from earlier work
# [5] = Onset and duration of satiety after ingestion of the agent; assay type: in vivo
# [6] = as compared with D-glucose and D-fructose (NPL 9); cited from earlier work
# healthy subjects = assay: Satiety, hunger and appetite questionnaire (VAS) after breakfast in healthy human subjects; assay type: in vivo; details: humans
# Protocol: Therefore, in this test, after fasting the subjects from 12 hours before the test day, the subjects were made to ingest either of the test solutions (150 mL) prepared to have the same degree of sweetness by adding 5 g of D-psicose or 10 mg of aspartame which is a high intensity sweetener as a control food. Incidentally, the concentration of the respective test solutions was 3.3% in the D-psicose group and 0.005% in the aspartame group. Further, the ingestion amount of D-psicose of the subjects was 0.071 to 0.096 g (mean: 0.085 g) per kilogram of body weight. After the ingestion, breakfast (sandwich, yogurt, and juice) (total calories: 405 kcal, proteins: 10.2%, fats: 28.4%, carbohydrates: 61.4%) was ingested in 10 minutes. During the test, the subjects were fasted except that they were allowed to free access to only prescribed water.
# The questionnaire with respect to appetite was filled out by the evaluation using the VAS (Visual Analog Scale) method and was prepared according to NPL 11. As the questionnaire items, the following three items: satiety, hunger, and appetite were set. In each item, the subjects were made to put a mark on a line with a length of 100 mm at a position most close to the state at that moment, then, the length from the left end to the position where the mark was put was measured with a ruler and converted into a numerical value. The obtained results are expressed as a mean and a standard error. A statistical test was performed using an unpaired Student's t test, and the data was marked with * when the P value was less than 5%, the data was marked with ** when the P value was less than 1%, and the data was marked with *** when the P value was less than 0.1%.
# [7] = oral administration by gavage, 1 g/kg
# [8] = oral administration by gavage, 3 g/kg
# [9] = 5 g in 150 mL before breakfast, in comparison with control food (aspartame)
smiles,measurement,setting,value
"[Cl-].[Li+] [lithium chloride, reference compound]",ratio of preference to the saccharin solution,"C57BL/6J male mice [1]; intraperitoneal, 3 mmol/kg",significantly decreased
"O=C[C@H](O)[C@@H](O)[C@H](O)[C@H](O)CO [D-glucose, reference compound]",cumulative food intake (energy (kcal)),C57BL/6J male mice [2]; [7],did not affect food intake
same,cumulative food intake (energy (kcal)),C57BL/6J male mice [2]; [8],did not affect food intake
O=C(CO)[C@H](O)[C@H](O)[C@H](O)CO [D-psicose],cumulative food intake (relative value (%)),"C57BL/6J male mice [2]; intraperitoneal administration, 1 g/kg",no effect on food intake
same,cumulative food intake (relative value (%)),"C57BL/6J male mice [2]; intraperitoneal administration, 3 g/kg, 0.5 to 6 hours after administration",significantly decreased
same,cumulative food intake (relative value (%)),"C57BL/6J male mice [2]; oral administration by gavage, 0.3 g/kg, any time zone after administration",a change in food intake was not observed
same,cumulative food intake (relative value (%)),"C57BL/6J male mice [2]; oral administration by gavage, 1 g/kg, 0.5 to 6 hours after administration",significantly decreased
same,cumulative food intake (relative value (%)),"C57BL/6J male mice [2]; oral administration by gavage, 3 g/kg, 0.5 to 6 hours after administration",significantly decreased
same,effective amount to reduce food intake in mice,"C57BL/6J male mice [2]; oral administration by gavage, mice",1 g/kg
same,cumulative liquid food intake (g),"C57BL/6J male mice [3]; sham-operated group, up to 3 hours after administration",significantly suppressed
same,cumulative liquid food intake (g),C57BL/6J male mice [3]; subdiaphragmatic vagotomized group,the effect was all lost
same,expression level of c-Fos in the medullary nucleus tractus solitarius,c-Fos,significantly increased
same,expression level of c-Fos in the nodose ganglion,c-Fos,significantly increased
same,increase in blood glucose level after eating,"[4]; humans, 5 g ingested along with a regular meal (NPL 6, NPL 7)",suppressed
same,blood glucose level,[4]; ingested alone (NPL 7),does not increase
same,blood glucose level after eating,"[4]; prediabetic adults, 5 g with breakfast versus 10 mg aspartame, crossover (NPL 6)",significant decrease
same,time until return to the state before the ingestion,[5],24 h
same,time until the effect is exhibited after the ingestion,[5],about 15 minutes
same,absorption in the small intestine,[6],slower
same,hunger (VAS),"healthy subjects; 5 g before breakfast, from immediately after breakfast up to after 4 hours",significantly suppressed
same,duration of effect of suppressing appetite (VAS),healthy subjects; [9],≥ 4 h
same,duration of effect of suppressing hunger (VAS),healthy subjects; [9],≥ 4 h
same,satiety after eating (VAS),healthy subjects; [9],sustained
same,ratio of preference to the saccharin solution,C57BL/6J male mice [1]; [7],did not affect the preference to the saccharin solution
same,ratio of preference to the saccharin solution,C57BL/6J male mice [1]; [8],did not affect the preference to the saccharin solution

# From US20160346304A1, “AGENT FOR SUSTAINING SATIETY AND METHOD FOR SUSTAINING SATIETY” (JICHI MEDICAL UNIVERSITY, priority 2014, published 2016)
